Source: patent publication US8343490B2, “Monoclonal antibody SC104 and derivative thereof specifically binding to a sialyltetraosyl carbohydrate as a potential anti-tumor therapeutic agent” (Cephalon Australia Pty Ltd, priority 2004, dated 2013)
Read-outs that look alike come from different tables or passages of the source.

What was measured:
C170 cells = assay: In vitro inhibition of cell growth in combination with cytotoxic drugs, MTS; format: cell-based; conditions: 5 days, FIG. 25
Procedure: 1×10^3 colorectal C170 cells were aliquoted into individual wells of a flat bottomed 96-well plate and left to adhere overnight at 37° C. The following day the cells were treated with cisplatin, mitomycin C, oxaliplatin and tamoxifen at final concentrations of 10, 3, 1, 0.3, 0.1 and 0 μM. Against each concentration of drug the following concentrations of SC104 were titrated: 10, 3, 1, 0.3 and 0 μg/ml. As a negative control 791T/36 at concentrations 100, 30, 10, 3 and 0 μg/ml, was titrated against each concentration of drug used. Duplicate wells were used. Cells were left for 5 days at 37° C. prior to the addition of MTS reagent to each well and optical density reading at 490 nm.

C170 xenografts [1] = format: in vivo
Procedure: (§1) Prevention model. The colorectal tumour cell line, C170 was maintained in serial passage in nude mice. For therapy the mice were sacrificed and the tumours excised. The tumour was finely minced and […] pieces were implanted, under anaesthetic, subcutaneously into 30 male mice which had been randomly allocated to 4 experimental groups.
Mice were explanted with 3 mm^3 pieces of C170 xenografts. Groups of mice were treated with 5-FU/leucovorin (12.5 mg/Kg) by intravenous infusion on days 1, 3, 5, 7 and 28. On the same days mice were also injected intraperitonealy with 0.2 mg of SC104 mab. Control mice received either SC104 alone or control mouse IgG antibody with 5-FU/leucovorin. Tumour size was measured by callipers and tumour cross sectional area calculated on days 7, 9, 12, 14 and 16. Animals were weighed to assess the toxicity of treatment. At the termination of the experiment tumours were weighed to assess anti-tumour efficacy.

C170 xenografts [2] = assay: C170 xenograft therapeutic model; format: in vivo, nude mice; conditions: administered therapeutically, after C170 xenograft implantation; FIG. 27
Procedure: as §1, with “Therapeutic” for “Prevention”
Mice were explanted with 3 mm^3 pieces of C170 xenografts. […] On the same days mice were also injected intraperitonealy with 0.2 mg of SC104 mab. Control mice received either SC104 alone or control mouse IgG antibody with 5FU/leucovorin. Tumour size was measured by callipers and tumour cross sectional area calculated on days 12, 16, 19 and 23.

C170 xenografts [3] = format: in vivo; conditions: day 6

## O=C1[O][Pt]2([NH][C@@H]3CCCC[C@H]3[NH]2)[O]C1=O [oxaliplatin]
C170 cells
  additive killing in combination with SC104: No additive effect

## N.N.[Cl][Pt][Cl] [cisplatin]
C170 cells
  additive killing in combination with SC104: additive killing

## 5-FU/leucovorin [reference compound]
C170 xenografts [1]; SC104 200 μg/dose ip, 5-FU/leucovorin at maximum tolerated dose, FIG. 26a
  inhibition of tumour growth of freshly explanted tumours: 50%

## CC/C(=C(\c1ccccc1)c1ccc(OCCN(C)C)cc1)c1ccccc1 [tamoxifen]
C170 cells
  additive killing in combination with SC104: additive killing

## O=c1[nH]cc(F)c(=O)[nH]1 [5-FU, 5-Fluorouracil, reference compound]
C170 cells
  additive killing in combination with SC104: additive killing
C170 xenografts [1]; Log Rank, FIG. 26b
  survival of mice: significant improvement of survival
C170 xenografts [1]; day 9
  inhibition of tumour growth: 40%
C170 xenografts [1]; day 12
  inhibition of tumour growth: 45%
C170 xenografts [1]; day 14
  inhibition of tumour growth: 58%
C170 xenografts [2]
  inhibition of tumour growth: neither 5FU nor SC104 alone significantly inhibited growth
C170 xenografts [3]
  inhibition of tumour growth: 62%

## CO[C@@]12[C@H](COC(N)=O)C3=C(C(=O)C(C)=C(N)C3=O)N1C[C@@H]1N[C@@H]12 [mitomycin C, Mitomycin C]
C170 cells
  additive killing in combination with SC104: additive killing
